Measured values taken from patent US20230126447A1, “OCULAR DRUG DEPOT FOR COMPLEMENT-MEDIATED DISORDERS” (priority 2020, published 2023).
Like-named read-outs stand apart in the source and are kept apart here.

Assay: Ocular tissue distribution and pharmacokinetics, 7.5 and 15 mg/kg oral, pigmented Dutch Belted rabbits (Example 7)
Type: in vivo
Conditions: for DN AUC0-24 / DN Cmax / Cmax / half-life / AUC(0-t) / Ctrough / DN AUC0-12: male DB rabbits; for Cmax / half-life / AUC(0-t): po
Procedure: For Group 1, two animals/time point were sacrificed via an overdose of sodium pentobarbital at approximately 1, 6, 12, 24, 96, 168, and 240 hours postdose. Blood (approximately 2 mL) was collected from all animals at sacrifice into tubes containing K2EDTA via exsanguination (cardiac puncture).
For Groups 2 through 4, blood (approximately 2 mL) was collected via a jugular vein using a syringe and needle and was transferred into tubes containing K2EDTA at approximately 12 hours after the a.m. dose on Day 15 from the two animals designated for sacrifice at approximately 240 hours after the a.m. dose on Day 15.
For Groups 2 through 4, two animals/group/time point were sacrificed via an overdose of sodium pentobarbital prior to dosing on Day 15 and at approximately 1, 6, 24, 96, 168, and 240 hours after the a.m. dose on Day 15. Blood (approximately 2 mL) was collected from all animals at sacrifice into tubes containing K2EDTA via exsanguination (cardiac puncture).
Blood was maintained on wet ice, in chilled cryoracks, or at approximately 5° C. prior to centrifugation to obtain plasma. Centrifugation began within 1 hour of collection (Deviation). Plasma was placed into 96-well tubes with barcode labels. Plasma was maintained on dry ice prior to storage at approximately −70° C.
At the time of sacrifice, both eyes were enucleated, and the following tissues were collected. Each eye was flash-frozen in liquid nitrogen for 15 to 20 seconds. The enucleated eye was placed on dry ice or stored at approximately −70° C. for at least 2 hours. Within approximately 3 days, the frozen matrices were collected as right and left eyes for each matrix into the specific tube type listed.
At the time of frozen collection, the ocular tissues were rinsed with saline and blotted dry (as appropriate), weighed, and placed on dry ice. All ocular tissues were collected as single samples.

[1] = Retina (OU), Group 3, Day 15, 15 mg/kg/dose BID oral (30 mg/kg/day)
[2] = male, Dutch Belted, rabbit, choroid-retinal pigment epithelium (choroid-RPE), 15 mg/kg, Choroid-RPE (OU), Group 3, Day 15, 15 mg/kg/dose BID oral (30 mg/kg/day)
[3] = male, Dutch Belted, rabbit, plasma, 15 mg/kg, plasma, Group 3, Day 15, 15 mg/kg/dose BID oral (30 mg/kg/day)
[4] = male, Dutch Belted, rabbit, plasma, […], plasma, Group 1, Day 1, […] single oral dose
[5] = male, Dutch Belted, rabbit, plasma, […], plasma, Group 2, Day 15, […] BID oral (15 mg/kg/day)
[6] = plasma, Group 1, Day 1, […] single oral dose
[7] = plasma, Group 2, Day 15, […] BID oral (15 mg/kg/day)
[8] = plasma, Group 3, Day 15, 15 mg/kg/dose BID oral (30 mg/kg/day)

SMILES: CC(=O)c1nn(CC(=O)N2C[C@H](F)C[C@H]2C(=O)Nc2cccc(Br)n2)c2ccc(-c3cnc(C)nc3)cc12 [Compound 1, (2S,4R)-1-(2-(3-Acetyl-5-(2-methylpyrimidin-5-yl)-1H-indazol-1-yl)acetyl)-N-(6-bromopyridin-2-yl)-4-fluoropyrrolidine-2-carboxamide]
- DN AUC0-24 [1]: 430 (h*ng/g)/(mg/kg/day)
- DN Cmax [1]: 85.7 (ng/g)/(mg/kg/day)
- Cmax (male, Dutch Belted, rabbit, choroid-RPE (choroid-retinal pigment epithelium), […], Choroid-RPE (OU), Group 1, Day 1, […] single oral dose): 726 ng/g
- Cmax [2]: 3970 ng/g
- half-life [2]: 76.2 h
- half-life (male, Dutch Belted, rabbit, choroid-retinal pigment epithelium (choroid-RPE), […], Choroid-RPE (OU), Group 1, Day 1, […] single oral dose): 58.9 h
- Cmax (male, Dutch Belted, rabbit, choroid-retinal pigment epithelium (choroid-RPE), […], Choroid-RPE (OU), Group 2, Day 15, […] BID oral (15 mg/kg/day)): 2000 ng/g
- Cmax (male, Dutch Belted, rabbit, iris-ciliary body (ICB), 15 mg/kg, ICB (OU), Group 3, Day 15, 15 mg/kg/dose BID oral (30 mg/kg/day)): 2050 ng/g
- Cmax (male, Dutch Belted, rabbit, iris-ciliary body (ICB), […], ICB (OU), Group 1, Day 1, […] single oral dose): 435 ng/g
- Cmax (male, Dutch Belted, rabbit, iris-ciliary body (ICB), […], ICB (OU), Group 2, Day 15, […] BID oral (15 mg/kg/day)): 943 ng/g
- Cmax [3]: 910 ng/mL
- half-life [3]: 4.98 h
- AUC(0-t) (male, Dutch Belted, rabbit, plasma, 15 mg/kg, plasma, Group 3, Day 15, 15 mg/kg/dose BID oral (30 mg/kg/day), read-out: AUC0-12): 3620 ng·h/mL
- AUC(0-t) (male, Dutch Belted, rabbit, plasma, 15 mg/kg, plasma, Group 3, Day 15, 15 mg/kg/dose BID oral (30 mg/kg/day), read-out: AUC0-24): 4010 ng·h/mL
- AUC(0-t) (male, Dutch Belted, rabbit, plasma, 15 mg/kg, plasma, Group 3, Day 15, 15 mg/kg/dose BID oral (30 mg/kg/day), read-out: AUC0-240): 4390 ng·h/mL
- AUC(0-t) (male, Dutch Belted, rabbit, plasma, 15 mg/kg, plasma, Group 3, Day 15, 15 mg/kg/dose BID oral (30 mg/kg/day), read-out: AUC0-t): 4010 ng·h/mL
- Cmax [4]: 423 ng/mL
- half-life [4]: 6.01 h
- AUC(0-t) (male, Dutch Belted, rabbit, plasma, […], plasma, Group 1, Day 1, […] single oral dose, read-out: AUC0-12): 1450 ng·h/mL
- AUC(0-t) (male, Dutch Belted, rabbit, plasma, […], plasma, Group 1, Day 1, […] single oral dose, read-out: AUC0-24): 1560 ng·h/mL
- AUC(0-t) (male, Dutch Belted, rabbit, plasma, […], plasma, Group 1, Day 1, […] single oral dose, read-out: AUC0-240): 1680 ng·h/mL
- AUC(0-t) (male, Dutch Belted, rabbit, plasma, […], plasma, Group 1, Day 1, […] single oral dose, read-out: AUC0-t): 1560 ng·h/mL
- Cmax [5]: 440 ng/mL
- half-life [5]: 4.88 h
- AUC(0-t) (male, Dutch Belted, rabbit, plasma, […], plasma, Group 2, Day 15, […] BID oral (15 mg/kg/day), read-out: AUC0-12): 1910 ng·h/mL
- AUC(0-t) (male, Dutch Belted, rabbit, plasma, […], plasma, Group 2, Day 15, […] BID oral (15 mg/kg/day), read-out: AUC0-24): 2130 ng·h/mL
- AUC(0-t) (male, Dutch Belted, rabbit, plasma, […], plasma, Group 2, Day 15, […] BID oral (15 mg/kg/day), read-out: AUC0-240): 2370 ng·h/mL
- AUC(0-t) (male, Dutch Belted, rabbit, plasma, […], plasma, Group 2, Day 15, […] BID oral (15 mg/kg/day), read-out: AUC0-t): 2130 ng·h/mL
- concentration at 6 h (male, Dutch Belted, rabbit, retina, oral, […] BID, DB rabbits, Day 15, […] BID, read-out: Mean Retina Concentration): 97.9 ng/g
- concentration at 24 h (male, Dutch Belted, rabbit, retina, oral, […] BID, DB rabbits, Day 15, […] BID, 24 hr, read-out: Mean Retina Concentration): 44.3 ng/g
- concentration at 96 h (male, Dutch Belted, rabbit, retina, oral, […] BID, DB rabbits, Day 15, […] BID, 96 hr, read-out: Mean Retina Concentration): 13.9 ng/g
- concentration at 168 h (male, Dutch Belted, rabbit, retina, oral, […] BID, DB rabbits, Day 15, […] BID, 168 hr, read-out: Mean Retina Concentration): 10.7 ng/g
- concentration at 240 h (male, Dutch Belted, rabbit, retina, oral, […] BID, DB rabbits, Day 15, […] BID, 240 hr, read-out: Mean Retina Concentration): 7.18 ng/g
- concentration at 6 h (male, Dutch Belted, rabbit, retina, oral, […], DB rabbits, Day 1, […] single dose, read-out: Mean Retina Concentration): 27.5 ng/g
- concentration at 12 h (male, Dutch Belted, rabbit, retina, oral, […], DB rabbits, Day 1, […] single dose, 12 hr, read-out: Mean Retina Concentration): 16.5 ng/g
- Cmax (male, Dutch Belted, rabbit, retina, 15 mg/kg, Retina (OU), Group 3, Day 15, 15 mg/kg/dose BID oral (30 mg/kg/day)): 1290 ng/g
- Cmax (male, Dutch Belted, rabbit, retina, […], Retina (OU), Group 1, Day 1, […] single oral dose): 188 ng/g
- Cmax (male, Dutch Belted, rabbit, retina, […], Retina (OU), Group 2, Day 15, […] BID oral (15 mg/kg/day)): 306 ng/g
- Ctrough [6]: 14.8 ng/mL
- DN AUC0-12 [6]: 194 (h*ng/mL)/(mg/kg/dose)
- DN AUC0-24 [6]: 208 (h*ng/mL)/(mg/kg/day)
- DN Cmax [6]: 56.4 (ng/mL)/(mg/kg/day)
- Ctrough [7]: 29.6 ng/mL
- DN AUC0-12 [7]: 255 (h*ng/mL)/(mg/kg/dose)
- DN AUC0-24 [7]: 284 (h*ng/mL)/(mg/kg/day)
- DN Cmax [7]: 58.6 (ng/mL)/(mg/kg/day)
- Ctrough [8]: 54.3 ng/mL
- DN AUC0-12 [8]: 242 (h*ng/mL)/(mg/kg/dose)
- DN AUC0-24 [8]: 267 (h*ng/mL)/(mg/kg/day)
- DN Cmax [8]: 60.7 (ng/mL)/(mg/kg/day)
- Tolerability, clinical observations (rabbits, single oral […] and BID ≥15 mg/kg/day): well tolerated
